Measured values as given in PMC7985570 (Signal Transduction and Targeted Therapy, 2021).
Where two headings read alike, the source gives them in different places.

Key:
[1] = test system: SARS-CoV-2 S-G614 pseudovirus; settings: for EC50: read-out: S-G614 Pseudovirus EC50
in vitro = settings: human, 293T-ACE2 CC50
[2] = test system: SARS-CoV-2 S-G614 pseudovirus; assay: organism not typed; settings: 293T/ACE2, read-out: S-G614 Pseudovirus EC50
VSV-G pseudovirus = assay: microbe, parasite or virus in culture; type: cell-based; settings: read-out: VSV-G Pseudovirus EC50
[3] = target: receptor-binding domain (RBD) in the S protein of SARS-CoV-2 (Severe acute respiratory syndrome coronavirus 2, UniProt P0DTC2)
S-G614 pseudovirus [4] = assay: microbe, parasite or virus in culture; type: cell-based; settings: read-out: EC50 against S-G614 pseudovirus in all three cell lines
S-G614 pseudovirus [5] = assay: microbe, parasite or virus in culture; type: cell-based, SARS-CoV-2; settings: for EC50: Pseudovirus, 293T/ACE2, read-out: 293T-ACE2 Cells EC50 BAPTA-AM (0μM)
native SARS-CoV-2 = type: cell-based
[6] = test system: SARS-CoV-2 S-mediated membrane fusion of 293T-ACE2 cells; type: cell-based
SARS-CoV-2 = settings: cited from earlier work

Row | Compound | SI (cytotoxicity) ([1]; human) | CC50 (in vitro) | EC50 [2] | EC50 (VSV-G pseudovirus; Pseudovirus) | SI (cytotoxicity) [1] | EC50 [1] | CC50 (293T-ACE2 cells) | EC50 (VSV-G pseudovirus) | further results
1 | CCOC(=O)[C@H]1O[C@@H]1C(=O)N[C@@H](CC(C)C)C(=O)NCCC(C)C [Aloxistatin, aloxistatin, reference compound] | >54.17 | > 50 µM | 0.923 µM | > 50 µM | – | – | – | – | –
2 | CC(N)C12CC3CC(CC(C3)C1)C2.Cl (stereo not shown) [SC16, Rimantadine (hydrochloride)] | – | – | – | – | >1.45 | 34.6 µM | > 50 µM | – | –
3 | COc1cc2c(cc1OC)[C@@H](Cc1ccc(O)c(Oc3cc4c(cc3OC)CCN(C)[C@@H]4Cc3ccc(O)cc3)c1)N(C)CC2 [SC186, Liensinine] | – | – | – | – | >49.80 | 1 µM | > 50 µM | > 50 µM | –
4 | COc1ccc(C[C@@H]2c3cc(Oc4cc(C[C@@H]5c6cc(OC)c(OC)cc6CCN5C)ccc4O)c(OC)cc3CCN2C)cc1 [SC185, Neferine] | – | > 50 µM | 0.95 µM | > 50 µM | – | – | – | – | interaction with RBD [3]: negligible; EC50 (S-G614 pseudovirus [4]): < 10 µM; EC50 (S-G614 pseudovirus [5]): 0.946 µM; Virus-induced cytopathogenic effect and viral RNA levels (native SARS-CoV-2): partially inhibited; relative viral RNA levels (native SARS-CoV-2): 76.98%; decrease of fusion rates [6]: approximately 90%
5 | Cl.N=c1ccn2c(n1)O[C@H]1[C@H](O)[C@@H](CO)O[C@H]12 [SC33, Ancitabine (hydrochloride)] | – | – | – | – | >4.94 | 10.1 µM | > 50 µM | > 50 µM | –
6 | COc1ccc2cc1Oc1ccc(cc1)C[C@H]1c3cc(c(OC)cc3CCN1C)Oc1c(O)c(OC)cc3c1[C@H](C2)N(C)CC3 [SC180, Fangchinoline] | >53.39 | > 50 µM | 0.94 µM | 4.39 µM | – | – | – | – | –
7 | COc1ccc2cc1Oc1ccc(cc1)C[C@H]1c3cc(c(OC)cc3CCN1C)Oc1c(OC)c(OC)c(OC)c3c1[C@H](C2)N(C)CC3 [SC161, Hernandezine] | – | – | – | – | – | – | – | – | interaction with RBD [3]: negligible; EC50 (S-G614 pseudovirus [4]): < 10 µM; EC50 (S-G614 pseudovirus [5]): 0.111 µM; Virus-induced cytopathogenic effect and viral RNA levels (native SARS-CoV-2): partially inhibited; relative viral RNA levels (native SARS-CoV-2): 70.27%; decrease of fusion rates [6]: approximately 90%
8 | COc1ccc(C[C@@H]2c3cc(Oc4cc(C[C@@H]5c6cc(O)c(OC)cc6CCN5C)ccc4O)c(OC)cc3CCN2C)cc1 [SC188, Isoliensinine] | >38.88 | > 50 µM | 1.29 µM | 7.02 µM | – | – | – | – | –
9 | Berbamine hydrochloride [SC183] | >38.94 | – | – | – | – | 1.28 µM | – | > 50 µM | CC50 (293T-ACE2 cells; human): > 50 µM
10 | COc1ccc2cc1Oc1ccc(cc1)CC1c3cc(c(OC)cc3CCN1C)Oc1c(O)c(OC)cc3c1C(C2)N(C)CC3 (stereo not shown) [SC181, Isofangchinoline] | – | – | – | – | >45.00 | 1.11 µM | > 50 µM | 3.95 µM | –
11 | Aloperine [SC96] | – | – | – | – | >176.87 | 0.28 µM | > 50 µM | 10.8 µM | –
12 | CCOC(=O)C1=C(COCCN)NC(C)=C(C(=O)OC)C1c1ccccc1Cl (stereo not shown) [amlodipine] | – | – | – | – | – | – | – | – | viral infection (SARS-CoV-2): reduced viral infection
13 | CC1CCN(CC(O)COc2cccc(OCC(O)CN3CCC(C)CC3)c2)CC1 (stereo not shown) [SC171, 3,3'-(1,3-phenylenebis(oxy))bis(1-(4-methylpiperidin-1-yl)propan-2-ol)] | – | – | – | – | – | – | – | – | interaction with RBD [3]: negligible; EC50 (S-G614 pseudovirus [4]): < 10 µM; EC50 (S-G614 pseudovirus [5]): 3.83 µM; Virus-induced cytopathogenic effect and viral RNA levels (native SARS-CoV-2): partially inhibited; relative viral RNA levels (native SARS-CoV-2): 43.55%
14 | COc1ccc2cc1Oc1ccc(cc1)C[C@H]1c3cc(c(OC)cc3CCN1C)Oc1c(OC)c(OC)cc3c1[C@H](C2)N(C)CC3 [SC182, Tetrandrine] | >55.80 | > 50 µM | 0.9 µM | 27.9 µM | – | – | – | – | EC50 (S-G614 pseudovirus [4]): < 10 µM; decrease of fusion rates [6]: approximately 90%
15 | Cc1nnc(C(=O)NC(C)(C)c2nc(C(=O)NCc3ccc(F)cc3)c([O-])c(=O)n2C)o1.[K+] [SC109, Raltegravir (potassium salt)] | – | – | – | – | >247647 | 0.0002 µM | > 50 µM | 0.0359 µM | –
16 | COc1cc2c(cc1O)[C@@H](Cc1ccc(O)c(Oc3ccc(C[C@@H]4c5cc(OC)c(OC)cc5CCN4C)cc3)c1)N(C)CC2 [SC187, Daurisoline] | – | – | – | – | >20.13 | 2.48 µM | > 50 µM | > 50 µM | –
17 | COc1c2c(cc3c1-c1c(cc4c(c1OC)OCO4)C[C@H](C)[C@H](C)C3)OCO2 [SC8, Schisandrin C] | >3.43 | > 50 µM | 14.6 µM | – | – | – | – | – | –
18 | CC(=O)OCOC(=O)CN(CC(=O)OCOC(C)=O)c1ccccc1OCCOc1ccccc1N(CC(=O)OCOC(C)=O)CC(=O)OCOC(C)=O [BAPTA-AM, reference compound] | – | – | – | – | – | – | – | – | SARS-CoV-2 pseudovirus infection on intracellular Ca2+ chelation (S-G614 pseudovirus [5]): significantly diminished
19 | COc1cc2c(cc1OC)[C@@H](Cc1ccc(Oc3cc(C[C@@H]4c5cc(OC)c(OC)cc5CCN4C)ccc3O)cc1)N(C)CC2 [SC184, Dauricine] | >34.99 | > 50 µM | 1.43 µM | > 50 µM | – | – | – | – | –
20 | COc1ccc2cc1Oc1ccc(cc1)C[C@H]1c3c(cc4c(c3Oc3cc5c(cc3OC)CCN(C)[C@@H]5C2)OCO4)CCN1C [SC9, Cepharanthine] | – | – | – | – | – | – | – | – | interaction with RBD [3]: negligible; EC50 (S-G614 pseudovirus [4]): < 10 µM; EC50 (S-G614 pseudovirus [5]): 0.315 µM; Virus-induced cytopathogenic effect and viral RNA levels (native SARS-CoV-2): partially inhibited; relative viral RNA levels (native SARS-CoV-2): 0.08%; decrease of fusion rates [6]: approximately 90%
21 | Cc1cccc2c3c(ccc12)C1=C(C(=O)C3=O)[C@@H](C)CO1 [SC24, Dihydrotanshinone I] | 0.90 | 33.5 µM | 15.7 µM | – | – | – | – | – | –
22 | O=C1Nc2ccc(Cl)cc2[C@@](C#CC2CC2)(C(F)(F)F)O1 [SC102, Efavirenz] | >130890 | > 50 µM | 0.00038 µM | 0.000723 µM | – | – | – | – | –
